Experimental data as given in PubChem BioAssay AID1996.
Values after ≈ are worked out from the molar mass of the structure shown.

Conditions: buffer; pH 7.4; 200.0 µM

solubility kinetic [µg/mL] | Structure (SMILES)
41.3 (≈ 149 µM) | COc1nc(C)cc(C)c1S(=O)(=O)c1ccccc1
< 0.7 | Cc1cc2c(cc1C)C(c1ccccc1OC(C)C)CC(=O)N2 (stereo not given)
> 41.1 | N#Cc1ccc(OCC(=O)OCC(=O)NC2CC2)cc1
> 39.6 | O=[N+]([O-])c1ccc(S(=O)(=O)c2ccccc2)nc1
16.3 (≈ 42 µM) | CC(C)CNS(=O)(=O)c1ccc(CCC(=O)NCCc2ccccc2)cc1
41.8 (≈ 146 µM) | CC#CC(=O)N1CCC(CO)(CCc2ccccc2)CC1
< 0.6 | CC(C)(C)c1ccc(SCCc2cccnc2)cc1
> 47.3 | CCC(C)c1ccccc1NC(=O)C(C)OC(=O)c1ccco1 (stereo not given)
34.5 (≈ 116 µM) | OCCC1CN(C2CCSCC2)CCN1C1CCCC1 (stereo not given)
< 0.1 | COCCCNc1nc(N)c([N+](=O)[O-])c(Nc2cc(OC)ccc2OC)n1
> 56 | CC(=O)Nc1cccc(OCCCNS(=O)(=O)c2ccc(C#N)cc2)c1
> 38.2 | O=C(COc1ccccc1Cl)N1CCNC1=O
> 49.5 | O=C1CCCN1CCCNC(=S)Nc1ccc(F)c(Cl)c1
3.1 (≈ 9.08 µM) | CCC(OC(=O)C1=Cc2ccccc2OC1)C(=O)NCc1ccco1 (stereo not given)
4.1 (≈ 12.1 µM) | COc1ccc(CCOC(=O)c2ccc(NC(=O)CC#N)cc2)cc1
13.7 (≈ 35.4 µM) | COc1cccc2cc(C(=O)OCC(=O)NC3CCCC(C)C3C)c(=O)oc12 (stereo not given)
> 51.1 | CN(C)CC(C)(C)CNc1ccc(S(=O)(=O)N2CCCC2)cn1
> 46.6 | CS(=O)(=O)N(CC(=O)N1CCCCC1)Cc1ccccc1
> 46 | CCC(Oc1ccccc1)C(=O)NCCCN1CCOCC1 (stereo not given)
> 46.1 | O=C(O)c1cc(O)ccc1NC(=O)c1cccc2ccccc12
< 0.3 | CCOC(=O)C(=CNc1cc(C)ccc1[N+](=O)[O-])C(=O)OCC

solubility kinetic [µg/mL] | Structure (SMILES)
15.8 (≈ 49.5 µM) | Cc1ccc(-c2csc(NC(=O)c3c(C)noc3C)n2)s1
> 56 | O=C1Cc2cc(S(=O)(=O)Nc3ccc(N4CCOCC4)cc3)ccc2N1
> 44 | CC1(C(=O)O)CCC(C(=O)Nc2cccc(F)c2)C1(C)C (stereo not given)
7.3 (≈ 19.3 µM) | Cc1ccc(S(=O)(=O)/N=C(/Nc2c(C)cccc2C)c2ccccc2)cc1
43.9 (≈ 137 µM) | COc1cc(CC(=O)NCC2CCCCC2)cc(OC)c1OC
> 37.2 | CC(=O)c1ccc(CC2SC(N)=NC2=O)cc1 (stereo not given)
14 (≈ 37 µM) | Cc1ccc(NC(=O)[C@@H]2CCCN2S(=O)(=O)c2ccc(Cl)cc2)cc1
> 47.9 | COc1ccc(OC)c(/C=C/C(=O)OCC(=O)N2CCCC2)c1
> 48.8 | C/C(=N\Nc1nc(C)cc(C)n1)c1ccc(N2CCOCC2)cc1
1.1 (≈ 5.91 µM) | CN(C)c1ccc(-n2cccc2)cc1
2.6 (≈ 8.16 µM) | O=[N+]([O-])c1ccc(N2CCN(c3cccc(Cl)c3)CC2)cn1
28 (≈ 116 µM) | Cn1c(Nc2ccc(F)cc2)nc2ccccc21
45.3 (≈ 140 µM) | COc1cccc(-n2c(=S)[nH]c3c(oc4ccccc43)c2=O)c1
2.2 (≈ 7.55 µM) | COc1cccc(NC(=O)Cc2ccc3ccccc3c2)c1
> 44.6 | CC(CCc1ccccc1)NC(=O)c1ccccc1C(=O)O (stereo not given)
7.4 (≈ 14.1 µM) | COc1cc(S(=O)(=O)N2CCOCC2)cc(C(=O)NCC(c2cccs2)N2CCOCC2)c1OC (stereo not given)
28.3 (≈ 93.5 µM) | Cc1ccc(NC(=O)C(c2ccccc2)N(C)C)cc1Cl (stereo not given)
9.1 (≈ 27.7 µM) | CC(=O)c1ccc(Oc2nc3c(c(=O)n(C)c(=O)n3C)n2C)cc1
2.3 (≈ 7.66 µM) | Cc1ccc(N2CCN(C(=O)c3cccs3)CC2)c(C)c1
< 0.7 | CC(=O)c1cc2c(cc1NS(=O)(=O)c1ccc(F)cc1)OCO2
> 42.1 | O=C(c1ccsc1)N1CCCC(N2CCOCC2)C1 (stereo not given)

solubility kinetic [µg/mL] | Structure (SMILES)
> 50.7 | Cc1cc(=O)[nH]c(SCC(=O)Nc2ccc(F)c([N+](=O)[O-])c2)n1
0.4 (≈ 1.28 µM) | S=C1NCN(CCc2ccccc2)CN1Cc1ccccc1
> 48.2 | COCC(C)NC(=S)NCCc1ccc(Cl)cc1Cl (stereo not given)
11.9 (≈ 38.3 µM) | COc1cccc(C(=O)Nc2ccccc2C(=O)NC2CC2)c1
40 (≈ 140 µM) | Cc1nc2oc3c(=O)[nH]cnc3c2c2c1COC(C)(C)C2
38.3 (≈ 134 µM) | Cc1ccccc1NC(=S)NC(=O)/C=C/c1ccco1
39.5 (≈ 129 µM) | CC(C)(C)C(=O)OCc1nc(-c2ccc(O)c(O)c2)cs1
> 53 | CCC(OC(=O)c1nsc(Cl)c1Cl)C(=O)NC(C)(C)CC (stereo not given)
45.8 (≈ 148 µM) | Nc1nonc1C(=O)NCCNC(=O)c1cccc(Cl)c1
6.6 (≈ 18.9 µM) | COc1ccccc1N1CCN(CC(=O)c2c[nH]c3ccccc23)CC1
19.6 (≈ 62.1 µM) | O=C1Nc2ccc(Cl)cc2C(C#CC2CC2)(C(F)(F)F)O1 (stereo not given)
> 39.1 | CCC1CCCCN1C(=O)NC(=O)c1ccccc1 (stereo not given)
21.5 (≈ 78.6 µM) | COc1ccc2ccccc2c1CN1CCSCC1
48.4 (≈ 149 µM) | O=S(=O)(NCCCN1CCOCC1)c1ccc(Cl)s1
64.9 (≈ 131 µM) | C=C[C@]1(C)C[C@@H](OC(=O)CSCCN(CC)CC)[C@]2(C)C(C)CC[C@]3(CCC(=O)[C@H]32)[C@@H](C)[C@@H]1O (stereo not given in full)
42.3 (≈ 150 µM) | O=C(Cc1c[nH]c2ccccc12)NCc1ccccc1F
> 51.8 | CC(=O)N1CCN(C(=S)Nc2ccc(SC(F)F)cc2)CC1
> 48.4 | Cc1ccc(C(=O)NCC(=O)N2CCc3ccccc3C2)cc1C
40.5 (≈ 148 µM) | COc1ccc(NC(=O)CNC(=O)c2ccco2)cc1
36.5 (≈ 121 µM) | CC(C)(C)C(=O)O/N=C1\CCS(=O)(=O)c2sccc21
6.8 (≈ 14.8 µM) | COc1ccc(C(=O)Nc2nc(-c3ccccn3)cs2)cc1S(=O)(=O)N1CCOCC1

solubility kinetic [µg/mL] | Structure (SMILES)
> 43.7 | CCCC(C)NC(=O)CSc1nc2ccc(C)cc2[nH]1 (stereo not given)
1.4 (≈ 4.45 µM) | Cc1cc(NC(=O)CSc2nc3c(cc2C#N)CCC3)no1
5.1 (≈ 14.8 µM) | O=C(Nc1cccc(S(=O)(=O)N2CCCCC2)c1)c1ccccn1
40.6 (≈ 149 µM) | COc1cccc(N/C(N)=N/c2nc(C)cc(=O)[nH]2)c1
18.9 (≈ 68.4 µM) | CC(NC(=O)c1ccc2ccccc2n1)c1ccccc1 (stereo not given)
> 35.2 | CCc1ccc(NC(=S)N2CCCC2)cc1
22.1 (≈ 72.1 µM) | Cc1cc(C)nc(NC(=O)c2ccc(Cl)c([N+](=O)[O-])c2)n1
53.9 (≈ 145 µM) | CC(=O)c1cccc(NC(=O)COC(=O)CCC(=O)c2ccc(F)cc2)c1
29.1 (≈ 142 µM) | O=C(O)c1ncsc1-c1ccccc1
10.6 (≈ 32.4 µM) | O=C1NC2(CCCCC2)C(=O)N1CC(=O)N1CCc2ccccc21
42.4 (≈ 130 µM) | O=C(Nc1ccc(Cl)c([N+](=O)[O-])c1)ONC1=NCCCCC1
35.6 (≈ 139 µM) | N#CCc1ccc(Oc2ccc([N+](=O)[O-])cn2)cc1
17.9 (≈ 77.1 µM) | O=C(CCc1ccccc1)Nc1nccs1
> 49.4 | COc1cc2c(cc1OC)CN(C(=O)/C=C/c1cccs1)CC2
20 (≈ 62.4 µM) | CCCCOc1ccc(Cc2c(O)nc(SC)[nH]c2=O)cc1
> 39.2 | Cc1ccccc1NC(=O)CCN1CCN(C)CC1
> 49.8 | CC1CC(C)CN(CC(O)COCc2ccccc2F)C1.Cl (stereo not given)
2.2 (≈ 7.91 µM) | CCN(CC)C(=S)Oc1c(Cl)cccc1Cl
26 (≈ 81.4 µM) | Cc1cc(C)c(S(=O)(=O)Cc2ccccc2)c(OC(C)C)n1

Structure (SMILES) | solubility kinetic [µg/mL]
CN1C(=O)CC(c2ccccc2)Nc2ccccc21.Cl (stereo not given) | > 43.3
CN1CCCN(C(=O)COc2ccccc2)CC1 | > 37.2
Cc1c(C(=O)Nc2ccccc2)cc(-c2ccccc2)n1CCCN1CCOCC1 | 36.8 (≈ 91.2 µM)
